Target: T1, ASGP receptor (biotinylated ASGPR) (Homo sapiens, UniProt P07306)
T1 construct: biotin (biotinylated)
T1 sequence (P07306 1-291): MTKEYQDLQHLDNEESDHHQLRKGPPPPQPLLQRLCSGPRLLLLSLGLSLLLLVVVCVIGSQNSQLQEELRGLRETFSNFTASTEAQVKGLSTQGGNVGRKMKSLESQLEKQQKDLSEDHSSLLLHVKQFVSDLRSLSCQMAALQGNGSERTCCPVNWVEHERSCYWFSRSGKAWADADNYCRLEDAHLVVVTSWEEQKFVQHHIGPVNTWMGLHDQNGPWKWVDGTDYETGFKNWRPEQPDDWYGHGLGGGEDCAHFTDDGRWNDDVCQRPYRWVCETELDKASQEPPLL
Assay type: binding
Conditions: SPR, Biacore 8K, 25° C.; Table 1A; read-out: ASGPR KD

Question: With `O=C(NC[C@H]1OC[C@H](Nc2cncc(C(F)(F)F)n2)[C@@H](O)[C@H]1O)c1ccc(-c2ccccc2)nc1` [A7, N-(((2R,3R,4R,5S)-3,4-dihydroxy-5-((6-(trifluoromethyl)pyrazin-2-yl)amino)tetrahydro-2H-pyran-2-yl)methyl)-6-phenylnicotinamide] as the molecule, how does the Kd read?
Answer: Its Kd is < 10 µM.

Question: With `O=C(NC[C@H]1OC[C@H](Nc2cncc(C(F)(F)F)n2)[C@@H](O)[C@H]1O)c1cnc2c(c1)CCNC2` [A76, N-(((2R,3R,4R,5S)-3,4-dihydroxy-5-((6-(trifluoromethyl)pyrazin-2-yl)amino)tetrahydro-2H-pyran-2-yl)methyl)-5,6,7,8-tetrahydro-1,7-naphthyridine-3-carboxamide] as the molecule, how does the Kd read?
Answer: The Kd was < 10 µM.

Question: `O=C(O)COCC(=O)NC[C@H]1OC[C@H](Nc2cncc(C(F)(F)F)n2)[C@@H](O)[C@H]1O` [A30, 2-(2-((((2R,3R,4R,5S)-3,4-dihydroxy-5-((6-(trifluoromethyl)pyrazin-2-yl)amino)tetrahydro-2H-pyran-2-yl)methyl)amino)-2-oxoethoxy)acetic acid] was tested. Which Kd did it give?
Answer: The Kd was < 10 µM.

Question: `O=C(NC[C@H]1OC[C@H](Nc2cncc(C(F)(F)F)n2)[C@@H](O)[C@H]1O)c1ccccc1` [A36, N-(((2R,3R,4R,5S)-3,4-dihydroxy-5-((6-(trifluoromethyl)pyrazin-2-yl)amino)tetrahydro-2H-pyran-2-yl)methyl)benzamide] was tested. Which Kd did it give?
Answer: The Kd was < 10 µM.

Question: How did the Kd turn out when `O=C(CC12CC3CC(CC(C3)C1)C2)NC[C@H]1OC[C@H](Nc2cncc(C(F)(F)F)n2)[C@@H](O)[C@H]1O` [A12, 2-((3R,5R,7R)-adamantan-1-yl)-N-(((2R,3R,4R,5S)-3,4-dihydroxy-5-((6-(trifluoromethyl)pyrazin-2-yl)amino)tetrahydro-2H-pyran-2-yl)methyl)acetamide] was run?
Answer: The Kd was < 10 µM.

Question: For `O=C(O)CCC(=O)NC1CC2(C1)CC(NC(=O)C[C@H]1OC[C@H](Nc3cncc(C(F)(F)F)n3)[C@@H](O)[C@H]1O)C2` (stereo partly shown) [A93], which Kd is on record?
Answer: Its Kd is < 10 µM.

Question: With `O=C(O)c1cc2ccc1CCc1ccc(c(C(=O)NC[C@H]3OC[C@H](Nc4cncc(C(F)(F)F)n4)[C@@H](O)[C@H]3O)c1)CC2` [A66, 4^3-((((2R,3R,4R,5S)-3,4-dihydroxy-5-((6-(trifluoromethyl)pyrazin-2-yl)amino)tetrahydro-2H-pyran-2-yl)methyl)carbamoyl)-1,4(1,4)-dibenzenacyclohexaphane-1^2-carboxylic acid] as the molecule, how does the Kd read?
Answer: Its Kd is < 10 µM.

Question: With `O=S(=O)(NC[C@H]1OC[C@H](Nc2cncc(C(F)(F)F)n2)[C@@H](O)[C@H]1O)c1ccccc1` [A112, N-(((2R,3R,4R,5S)-3,4-dihydroxy-5-((6-(trifluoromethyl)pyrazin-2-yl)amino)tetrahydro-2H-pyran-2-yl)methyl)benzenesulfonamide] as the molecule, how does the Kd read?
Answer: Its Kd is < 10 µM.

Question: With `OC[C@H]1O[C@@H](c2ccccc2)[C@H](Nc2cncc(C(F)(F)F)n2)[C@@H](O)[C@H]1O` [A109, (2R,3R,4R,5R,6S)-2-(hydroxymethyl)-6-phenyl-5-((6-(trifluoromethyl)pyrazin-2-yl)amino)tetrahydro-2H-pyran-3,4-diol] as the molecule, how does the Kd read?
Answer: The Kd was 10 to 100 µM.

Same assay, conditions: SPR, Biacore 8K, 25° C.; Table 1B; read-out: ASGPR Kd

Question: How did the Kd turn out when `O[C@@H]1[C@@H](Nc2cncc(C(F)(F)F)n2)CNC[C@@H]1O` [A150, (3S,4R,5S)-5-((6-(trifluoromethyl)pyrazin-2-yl)amino)piperidine-3,4-diol] was run?
Answer: Its Kd is < 10 µM.

Question: `OC[C@H]1OC[C@H](Oc2cncc(C(F)(F)F)n2)[C@@H](O)[C@H]1O` [A141, (2R,3R,4S,5S)-2-(hydroxymethyl)-5-((6-(trifluoromethyl)pyrazin-2-yl)oxy)tetrahydro-2H-pyran-3,4-diol] was tested. Which Kd did it give?
Answer: The Kd was < 10 µM.

Question: With `OC[C@H]1OC[C@H](Oc2cccc(C(F)(F)F)n2)[C@@H](O)[C@H]1O` [A142, (2R,3R,4S,5S)-2-(hydroxymethyl)-5-((6-(trifluoromethyl)pyridin-2-yl)oxy)tetrahydro-2H-pyran-3,4-diol] as the molecule, how does the Kd read?
Answer: Its Kd is < 10 µM.

Question: How did the Kd turn out when `O[C@@H]1[C@H](O)[C@@H](Nc2cncc(C(F)(F)F)n2)CO[C@@H]1CF` [A162, (2S,3R,4R,5S)-2-(fluoromethyl)-5-((6-(trifluoromethyl)pyrazin-2-yl)amino)tetrahydro-2H-pyran-3,4-diol] was run?
Answer: Its Kd is < 10 µM.

Question: Which Kd does the source give for `OC[C@H]1OC[C@H](Nc2cccc(Br)n2)[C@@H](O)[C@H]1O` [A153, (2R,3R,4R,5S)-5-((6-bromopyridin-2-yl)amino)-2-(hydroxymethyl)tetrahydro-2H-pyran-3,4-diol] here?
Answer: Its Kd is < 10 µM.

Question: Which Kd does the source give for `O=C(c1ccc(Cc2ccccc2)cc1)N1C[C@H](Nc2cncc(C(F)(F)F)n2)[C@@H](O)[C@@H](O)C1` [A148, (4-benzylphenyl)((3S,4R,5S)-3,4-dihydroxy-5-((6-(trifluoromethyl)pyrazin-2-yl)amino)piperidin-1-yl)methanone] here?
Answer: The Kd was < 10 µM.

Same assay, conditions: SPR, Biacore 8K, 25° C.; Table 1C; read-out: ASGPR KD

Question: How did the Kd turn out when `O[C@@H]1[C@H](O)[C@@H](Oc2cccc(C(F)(F)F)n2)CO[C@@H]1COc1ccnnc1` [A288] was run?
Answer: Its Kd is < 10 µM.

Question: With `O=C(O)c1ccc(N2CCN(C[C@H]3OC[C@H](Nc4cncc(C(F)(F)F)n4)[C@@H](O)[C@H]3O)CC2)cc1` [A223, 4-(4-(((2R,3R,4R,5S)-3,4-dihydroxy-5-((6-(trifluoromethyl)pyrazin-2-yl)amino)tetrahydro-2H-pyran-2-yl)methyl)piperazin-1-yl) benzoic acid] as the molecule, how does the Kd read?
Answer: Its Kd is < 10 µM.

Question: Which Kd does the source give for `O[C@@H]1[C@H](O)[C@@H](Oc2cccc(C(F)(F)F)n2)CO[C@@H]1CN1CCN(c2ccccn2)CC1` [A259] here?
Answer: Its Kd is < 10 µM.

Question: Which Kd does the source give for `NCCOCCOCC(=O)NC[C@H]1OC[C@H](Oc2cccc(C(F)(F)F)n2)[C@@H](O)[C@H]1O` [A326] here?
Answer: Its Kd is < 10 µM.

Question: How did the Kd turn out when `O=C1c2ncccc2CN1C[C@H]1OC[C@H](Oc2cccc(C(F)(F)F)n2)[C@@H](O)[C@H]1O` [A263] was run?
Answer: The Kd was < 10 µM.

Question: `O[C@@H]1[C@H](O)[C@@H](Nc2cncc(C(F)(F)F)n2)CO[C@@H]1COc1ccc(-c2ccccc2)cc1` [A202, (2R,3R,4R,5S)-2-(([1,1′-biphenyl]-4-yloxy)methyl)-5-((6-(trifluoromethyl)pyrazin-2-yl)amino)tetrahydro-2H-pyran-3,4-diol] was tested. Which Kd did it give?
Answer: The Kd was < 10 µM.

Question: For `O[C@@H]1[C@H](O)[C@@H](Oc2cccc(C(F)(F)F)n2)CO[C@@H]1CSc1ccccn1` [A307], which Kd is on record?
Answer: The Kd was < 10 µM.

Question: For `O[C@@H]1[C@H](O)[C@@H](Nc2cncc(C(F)(F)F)n2)CO[C@@H]1c1cn(C2CCNCC2)nn1` [A200, (2R,3R,4R,5S)-2-(1-(piperidin-4-yl)-1H-1,2,3-triazol-4-yl)-5-((6-(trifluoromethyl)pyrazin-2-yl)amino)tetrahydro-2H-pyran-3,4-diol], which Kd is on record?
Answer: The Kd was < 10 µM.

Question: How did the Kd turn out when `O=C1c2ccc(F)cc2CN1C[C@H]1OC[C@H](Oc2cccc(C(F)(F)F)n2)[C@@H](O)[C@H]1O` [A273] was run?
Answer: The Kd was < 10 µM.

Question: `CC(O)[C@H]1O[C@H](C)[C@H](O)[C@H](O)[C@H]1Oc1cccc(C(F)(F)F)n1` (stereo partly shown) [A339] was tested. Which Kd did it give?
Answer: Its Kd is < 10 µM.

Question: How did the Kd turn out when `CC(=O)[C@H]1O[C@H](C)[C@H](O)[C@H](O)[C@H]1Oc1cccc(C(F)(F)F)n1` [A334] was run?
Answer: Its Kd is < 10 µM.

Question: With `O[C@@H]1[C@H](O)[C@@H](Nc2cncc(C(F)(F)F)n2)CO[C@@H]1COc1cccnn1` [A212, (2R,3R,4R,5S)-2-((pyridazin-3-yloxy)methyl)-5-((6-(trifluoromethyl)pyrazin-2-yl)amino)tetrahydro-2H-pyran-3,4-diol] as the molecule, how does the Kd read?
Answer: Its Kd is < 10 µM.

Question: Which Kd does the source give for `O=C(O)c1cnc(OC[C@H]2OC[C@H](Oc3cccc(C(F)(F)F)n3)[C@@H](O)[C@H]2O)cn1` [A244] here?
Answer: The Kd was < 10 µM.

Question: How did the Kd turn out when `O[C@@H]1[C@@H](Oc2cccc(C(F)(F)F)n2)COC(C(F)(F)c2ccc(Cl)cc2)[C@@H]1O` (stereo partly shown) [A306] was run?
Answer: Its Kd is < 10 µM.

Question: `CC(C)(C)OC(=O)N1CC(Cc2ccc(OC[C@H]3OC[C@H](Oc4cccc(C(F)(F)F)n4)[C@@H](O)[C@H]3O)nn2)C1` [A256] was tested. Which Kd did it give?
Answer: The Kd was < 10 µM.

Question: Which Kd does the source give for `C[C@H]1O[C@@H](c2ccccn2)[C@H](Oc2cccc(C(F)(F)F)n2)[C@@H](O)[C@H]1O` [A336] here?
Answer: Its Kd is < 10 µM.

Question: `C[C@H]1O[C@H](C#CCO)[C@H](Oc2cccc(C(F)(F)F)n2)[C@@H](O)[C@H]1O` [A286] was tested. Which Kd did it give?
Answer: Its Kd is < 10 µM.

Same assay, conditions: SPR, Biacore 8K, 25° C.; Table 1D, numeric bound; read-out: ASGPR KD

Question: For `O=C(OCc1ccccc1)N1C[C@H](O)[C@H](O)[C@@H](S(=O)(=O)c2cncc(C(F)(F)F)n2)C1` [A358], which Kd is on record?
Answer: The Kd was > 30 µM.

Same assay, conditions: SPR, Biacore 8K, 25° C.; Table 1D; read-out: ASGPR KD

Question: Which Kd does the source give for `O=C(OCc1ccccc1)N1C[C@H](Oc2cccc(C(F)(F)F)n2)[C@@H](O)[C@@H](O)C1` [A386] here?
Answer: Its Kd is < 10 µM.

Question: With `O[C@@H]1[C@@H](Oc2cncc(C(F)(F)F)n2)CNC[C@@H]1O` [A389] as the molecule, how does the Kd read?
Answer: The Kd was < 10 µM.

Question: `O=C(OCc1ccccc1)N1C[C@H](Nc2cccc(C(F)(F)F)n2)[C@@H](O)[C@@H](O)C1` [A390] was tested. Which Kd did it give?
Answer: Its Kd is < 10 µM.

Question: With `CCN1C[C@H](O)[C@H](O)[C@@H](N(C)c2cncc(C(F)(F)F)n2)C1` [A366] as the molecule, how does the Kd read?
Answer: Its Kd is < 10 µM.

Question: How did the Kd turn out when `O=C(c1ccc(Cc2ccccc2)cc1)N1C[C@H](Nc2cncc(C(F)(F)F)n2)[C@@H](O)[C@@H](O)C1` [A364] was run?
Answer: Its Kd is < 10 µM.

Question: Which Kd does the source give for `O=C(O)COCCOCC(=O)C1C[C@H](Nc2cncc(C(F)(F)F)n2)[C@@H](O)[C@@H](O)C1` (stereo partly shown) [A381] here?
Answer: Its Kd is < 10 µM.

Same assay, conditions: SPR, Biacore 8K, 25° C.; Table 1E; read-out: ASGPR KD

Question: With `C[C@H]1O[C@H](COc2cccc(C(F)(F)F)n2)[C@H](O)[C@@H](O)[C@H]1O` [A445] as the molecule, how does the Kd read?
Answer: The Kd was 10 to 100 µM.

Question: How did the Kd turn out when `C[C@H]1O[C@H](COc2cnc(C(=O)O)cn2)[C@H](Oc2cccc(C(F)(F)F)n2)[C@@H](O)[C@H]1O` [A443] was run?
Answer: The Kd was < 10 µM.

Question: How did the Kd turn out when `C[C@H]1O[C@H](CCc2ccncc2)[C@H](Oc2cccc(C(F)(F)F)n2)[C@@H](O)[C@H]1O` [A439] was run?
Answer: The Kd was < 10 µM.

Same assay, conditions: SPR; Table 2; read-out: ASGPR SPR Binding KD

Question: Which Kd does the source give for `CC1(C)C(=O)c2ccc(-c3cnc(N4CCN5C(=O)N(CCCNC(=O)c6ccc7c(c6)C(F)(F)c6cc(C(=O)NC[C@H]8OC[C@H](Nc9cncc(C(F)(F)F)n9)[C@@H](O)[C@H]8O)ccc6-7)C[C@@H]5C4)nc3)nc2N1Cc1cccnc1C#N` [compound 20] here?
Answer: The Kd was < 0.1 µM.
